This is an account of results in ChEMBL document CHEMBL1136466, “KMI-008, a novel beta-secretase inhibitor containing a hydroxymethylcarbonyl isostere as a transition-state mimic: design and synthesis of substrate-based octapeptides” (Bioorg Med Chem Lett, 2003).

Starred links: 1 amine or outer side, 2 acyl side, 3 side chain; linkers in the order of their positions; H or OH if unused. Non-standard residues stand in square brackets, D forms with d. Residues, ends and D or L forms follow the SMILES beside them. β3hPhe(2R-OH) = O=C([C@H](O)[C@H](Cc1ccccc1)N[*:1])[*:2]; X1 = CC(C)C[C@H](N[*:1])[C@@H](O)C(=O)[*:2]

The target in test [1] is T1, Beta-secretase 1 (Homo sapiens, UniProt P56817). Kind of test: Inhibition of beta-secretase 1 (BACE) was determined at the concentration of 2 uM.
T1 sequence (P56817 whole entry): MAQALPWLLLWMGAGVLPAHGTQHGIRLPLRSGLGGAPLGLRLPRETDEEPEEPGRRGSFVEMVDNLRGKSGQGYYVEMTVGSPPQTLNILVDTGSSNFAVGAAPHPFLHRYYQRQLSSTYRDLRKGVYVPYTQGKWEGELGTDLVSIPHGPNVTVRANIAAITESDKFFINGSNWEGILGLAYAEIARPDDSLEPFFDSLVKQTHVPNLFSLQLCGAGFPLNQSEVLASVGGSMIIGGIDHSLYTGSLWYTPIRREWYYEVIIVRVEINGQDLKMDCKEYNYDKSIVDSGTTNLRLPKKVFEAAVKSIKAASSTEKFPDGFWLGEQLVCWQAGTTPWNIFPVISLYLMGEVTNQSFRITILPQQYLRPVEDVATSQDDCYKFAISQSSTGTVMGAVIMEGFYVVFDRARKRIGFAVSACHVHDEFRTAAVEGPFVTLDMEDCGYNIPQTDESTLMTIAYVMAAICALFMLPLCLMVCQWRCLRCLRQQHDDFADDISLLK
Test [2] deals with T1, Beta-secretase 1. The test can be described thus: Inhibitory activity against Beta-secretase 1 was determined.

Usually inhibition stands for the change of the read-out against control, counted positive when it falls. Consider `CC(C)C[C@H](NC(=O)[C@H](Cc1ccccc1)NC(=O)[C@@H](N)CCC(=O)O)C(=O)N[C@@H](Cc1ccccc1)[C@@H](O)C(=O)N[C@@H](CC(=O)O)C(=O)N[C@@H](C)C(=O)N[C@@H](CCC(=O)O)C(=O)N[C@@H](Cc1ccccc1)C(=O)O` (H-EFL[β3hPhe(2R-OH)]DAEF-OH), for which the inhibition in test [1] was less than 20%.
The same measure, in the same setting: the value for `CC(C)C[C@H](NC(=O)[C@H](C)NC(=O)[C@H](CC(=O)O)NC(=O)[C@H](O)[C@H](Cc1ccccc1)NC(=O)[C@H](CC(C)C)NC(=O)[C@@H](NC(=O)[C@@H](N)CCC(=O)O)C(C)C)C(=O)N[C@@H](Cc1ccccc1)C(=O)O` (H-EVL[β3hPhe(2R-OH)]DALF-OH) was 57%.
Same read-out and setting: then `CC(C)C[C@H](NC(=O)[C@@H](NC(=O)[C@@H](N)CCC(=O)O)C(C)C)C(=O)N[C@@H](Cc1ccccc1)[C@@H](O)C(=O)N1CSC(C)(C)C1C(=O)N[C@@H](C)C(=O)N[C@@H](CCC(=O)O)C(=O)N[C@@H](Cc1ccccc1)C(=O)O` (some centres not stated), with 34%.
`CC(C)C[C@H](NC(=O)[C@@H](NC(=O)[C@@H](N)CCC(=O)O)C(C)C)C(=O)N[C@@H](Cc1ccccc1)[C@@H](O)C(=O)N[C@@H](CCC(N)=O)C(=O)N[C@@H](C)C(=O)N[C@@H](CCC(=O)O)C(=O)N[C@@H](Cc1ccccc1)C(=O)O`: in test [1], the inhibition is 41%.
With `CC(C)C[C@H](NC(=O)[C@@H](NC(=O)[C@@H](N)CCC(=O)O)C(C)C)C(=O)N[C@@H](Cc1ccccc1)[C@@H](O)C(=O)N[C@@H](C)C(=O)N[C@@H](Cc1ccccc1)C(=O)N[C@@H](CCC(=O)O)C(=O)N[C@@H](Cc1ccccc1)C(=O)O` (H-EVL[β3hPhe(2R-OH)]AFEF-OH), the inhibition in test [1] was 60%.
Compound `CC(C)[C@H](NC(=O)[C@@H](N)CCC(=O)O)C(=O)N[C@@H](CCC(=O)O)C(=O)N[C@@H](Cc1ccccc1)[C@@H](O)C(=O)N[C@@H](CC(=O)O)C(=O)N[C@@H](C)C(=O)N[C@@H](CCC(=O)O)C(=O)N[C@@H](Cc1ccccc1)C(=O)O` (H-EVE[β3hPhe(2R-OH)]DAEF-OH) gave an inhibition in test [1] of 30%.
The compound `CC(C)C[C@H](NC(=O)[C@@H](NC(=O)[C@@H](N)CCC(=O)O)C(C)C)C(=O)N[C@H](Cc1ccccc1)[C@@H](O)C(=O)N[C@@H](CC(=O)O)C(=O)N[C@@H](C)C(=O)N[C@@H](CCC(=O)O)C(=O)N[C@@H](Cc1ccccc1)C(=O)O` came in with an inhibition in test [1] of 66%.
In test [1], `CC(C)[C@H](NC(=O)[C@@H](N)CCC(=O)O)C(=O)N[C@@H](CC(=O)O)C(=O)N[C@@H](Cc1ccccc1)[C@@H](O)C(=O)N[C@@H](CC(=O)O)C(=O)N[C@@H](C)C(=O)N[C@@H](CCC(=O)O)C(=O)N[C@@H](Cc1ccccc1)C(=O)O` (H-EVD[β3hPhe(2R-OH)]DAEF-OH) had an inhibition of 25%.
Still for that read-out and setting: the value for `CC(C)C[C@H](NC(=O)[C@@H](NC(=O)[C@@H](N)CCC(=O)O)C(C)C)C(=O)N[C@@H](Cc1ccccc1)[C@@H](O)C(=O)N[C@@H](C)C(=O)N[C@@H](C)C(=O)N[C@@H](CCC(=O)O)C(=O)N[C@@H](Cc1ccccc1)C(=O)O` was 53%; that for `CSCC[C@H](NC(=O)[C@@H](NC(=O)[C@@H](N)CCC(=O)O)C(C)C)C(=O)N[C@@H](Cc1ccccc1)[C@@H](O)C(=O)N[C@@H](CC(=O)O)C(=O)N[C@@H](C)C(=O)N[C@@H](CCC(=O)O)C(=O)N[C@@H](Cc1ccccc1)C(=O)O` (H-EVM[β3hPhe(2R-OH)]DAEF-OH) was 42%.
On the same count and under the same terms, then `CC(C)C[C@H](NC(=O)[C@H](CC(N)=O)NC(=O)[C@@H](NC(=O)[C@@H](N)CCC(=O)O)C(C)C)[C@@H](O)C(=O)N[C@@H](CC(=O)O)C(=O)N[C@@H](C)C(=O)N[C@@H](CCC(=O)O)C(=O)N[C@@H](Cc1ccccc1)C(=O)O` (H-EVN[X1]DAEF-OH), with less than 20%.
On the same count and under the same terms, the value for `CC(C)[C@H](NC(=O)[C@@H](N)CCC(=O)O)C(=O)N[C@@H](CCCCN)C(=O)N[C@@H](Cc1ccccc1)[C@@H](O)C(=O)N[C@@H](CC(=O)O)C(=O)N[C@@H](C)C(=O)N[C@@H](CCC(=O)O)C(=O)N[C@@H](Cc1ccccc1)C(=O)O` (H-EVK[β3hPhe(2R-OH)]DAEF-OH) was less than 20%; that for `CC(C)C[C@H](NC(=O)[C@@H](NC(=O)[C@@H](N)CCC(=O)O)C(C)C)C(=O)N[C@@H](Cc1ccccc1)[C@@H](O)C(=O)N[C@@H](CCC(=O)O)C(=O)N[C@@H](C)C(=O)N[C@@H](CCC(=O)O)C(=O)N[C@@H](Cc1ccccc1)C(=O)O` was 64%; that for `CC(C)C[C@H](NC(=O)[C@@H](NC(=O)[C@@H](N)CCC(=O)O)C(C)C)C(=O)N[C@H](Cc1ccccc1)[C@@H](O)C(=O)N[C@@H](CCC(N)=O)C(=O)N[C@@H](C)C(=O)N[C@@H](CCC(=O)O)C(=O)N[C@@H](Cc1ccccc1)C(=O)O` was 33%.
In the case of `CSCC[C@H](NC(=O)[C@@H](N)CCC(=O)O)C(=O)N[C@@H](CC(C)C)C(=O)N[C@@H](Cc1ccccc1)[C@@H](O)C(=O)N[C@@H](CC(=O)O)C(=O)N[C@@H](C)C(=O)N[C@@H](CCC(=O)O)C(=O)N[C@@H](Cc1ccccc1)C(=O)O` (H-EML[β3hPhe(2R-OH)]DAEF-OH), in test [1], the inhibition is less than 20%.
Consider `CC(C)C[C@H](NC(=O)[C@@H](NC(=O)[C@@H](N)CCC(=O)O)C(C)C)C(=O)N[C@@H](Cc1ccccc1)[C@@H](O)C(=O)N[C@@H](CC(=O)O)C(=O)N[C@@H](C)C(=O)N[C@@H](Cc1ccccc1)C(=O)N[C@@H](Cc1ccccc1)C(=O)O` (H-EVL[β3hPhe(2R-OH)]DAFF-OH), for which the inhibition in test [1] was found to be 67%.
What is called IC50 is the concentration that inhibits the measured activity by half. Higher therefore signals lower potency. With `CC(C)C[C@H](NC(=O)[C@@H](NC(=O)[C@@H](N)CCC(=O)O)C(C)C)C(=O)N[C@@H](Cc1ccccc1)[C@@H](O)C(=O)N[C@@H](CC(=O)O)C(=O)N[C@@H](C)C(=O)N[C@@H](CCC(=O)O)C(=O)N[C@@H](Cc1ccccc1)C(=O)O` [HGLUVALLEUPNSASPALAGLUPHEOH], in test [1], the inhibition is greater than 90%. This compound showed an IC50 in test [2] of 413 nM.
For `CC(C)C[C@H](NC(=O)[C@@H](NC(=O)[C@@H](N)CCC(=O)O)C(C)C)C(=O)N[C@@H](Cc1ccccc1)[C@@H](O)C(=O)N[C@@H](CC(=O)O)C(=O)N[C@@H](C)C(=O)N[C@H](C(=O)N[C@@H](Cc1ccccc1)C(=O)O)C(C)C` (H-EVL[β3hPhe(2R-OH)]DAVF-OH), in test [1], the inhibition turned out to be 57%.
The same measure, in the same setting: the value for `CC(C)[C@H](NC(=O)[C@@H](N)CCC(=O)O)C(=O)N[C@@H](CCC(N)=O)C(=O)N[C@@H](Cc1ccccc1)[C@@H](O)C(=O)N[C@@H](CC(=O)O)C(=O)N[C@@H](C)C(=O)N[C@@H](CCC(=O)O)C(=O)N[C@@H](Cc1ccccc1)C(=O)O` (H-EVQ[β3hPhe(2R-OH)]DAEF-OH) was 36%.
Still for that read-out and setting: then `CC(C)C[C@H](NC(=O)[C@@H](NC(=O)[C@@H](N)CCC(=O)O)C(C)C)C(=O)N[C@H](Cc1ccccc1)[C@@H](O)C(=O)N[C@@H](CC(N)=O)C(=O)N[C@@H](C)C(=O)N[C@@H](CCC(=O)O)C(=O)N[C@@H](Cc1ccccc1)C(=O)O`, with 22%; and `CC(C)C[C@H](NC(=O)[C@@H](NC(=O)[C@@H](N)CCC(=O)O)C(C)C)C(=O)N[C@H](Cc1ccccc1)[C@@H](O)C(=O)N[C@@H](CCC(=O)O)C(=O)N[C@@H](C)C(=O)N[C@@H](CCC(=O)O)C(=O)N[C@@H](Cc1ccccc1)C(=O)O`, with 47%.
Compound `CC(C)C[C@H](NC(=O)[C@@H](NC(=O)[C@@H](N)CCC(=O)O)C(C)C)C(=O)N[C@H](Cc1ccccc1)[C@@H](O)C(=O)N1CSC(C)(C)C1C(=O)N[C@@H](C)C(=O)N[C@@H](CCC(=O)O)C(=O)N[C@@H](Cc1ccccc1)C(=O)O` (some centres not stated) returned an inhibition in test [1] of 34%.
Take `CC[C@@H](C)[C@H](NC(=O)[C@@H](N)CCC(=O)O)C(=O)N[C@@H](CC(C)C)C(=O)N[C@@H](Cc1ccccc1)[C@@H](O)C(=O)N[C@@H](CC(=O)O)C(=O)N[C@@H](C)C(=O)N[C@@H](CCC(=O)O)C(=O)N[C@@H](Cc1ccccc1)C(=O)O`: in test [1], the inhibition was determined as 26%.
Still for that read-out and setting: then `CC(C)C[C@H](NC(=O)[C@@H](NC(=O)[C@@H](N)CCC(=O)O)C(C)C)C(=O)N[C@@H](Cc1ccccc1)[C@@H](O)C(=O)N[C@@H](C)C(=O)N[C@@H](CCC(=O)O)C(=O)N[C@@H](CCC(=O)O)C(=O)N[C@@H](Cc1ccccc1)C(=O)O` (H-EVL[β3hPhe(2R-OH)]AEEF-OH), with 78%; and `CC(C)C[C@H](NC(=O)[C@@H](NC(=O)[C@@H](N)CCC(=O)O)C(C)C)C(=O)N[C@@H](Cc1ccccc1)[C@@H](O)C(=O)N[C@@H](CC(N)=O)C(=O)N[C@@H](C)C(=O)N[C@@H](CCC(=O)O)C(=O)N[C@@H](Cc1ccccc1)C(=O)O`, with 54%.
The same measure, in the same setting: the value for `CC(C)C[C@H](NC(=O)[C@H](CC(C)C)NC(=O)[C@@H](N)CCC(=O)O)C(=O)N[C@@H](Cc1ccccc1)[C@@H](O)C(=O)N[C@@H](CC(=O)O)C(=O)N[C@@H](C)C(=O)N[C@@H](CCC(=O)O)C(=O)N[C@@H](Cc1ccccc1)C(=O)O` (H-ELL[β3hPhe(2R-OH)]DAEF-OH) was less than 20%; that for `CC(C)C[C@H](NC(=O)[C@@H](NC(=O)[C@@H](N)CCC(=O)O)C(C)C)C(=O)N[C@H](Cc1ccccc1)[C@@H](O)C(=O)N[C@@H](C)C(=O)N[C@@H](C)C(=O)N[C@@H](CCC(=O)O)C(=O)N[C@@H](Cc1ccccc1)C(=O)O` was less than 20%.
In turn, `CC(C)[C@H](NC(=O)[C@@H](N)CCC(=O)O)C(=O)N[C@@H](CC(N)=O)C(=O)N[C@@H](Cc1ccccc1)[C@@H](O)C(=O)N[C@@H](CC(=O)O)C(=O)N[C@@H](C)C(=O)N[C@@H](CCC(=O)O)C(=O)N[C@@H](Cc1ccccc1)C(=O)O` (H-EVN[β3hPhe(2R-OH)]DAEF-OH) had an inhibition in test [1] of 24%.
In the case of `CC(C)C[C@H](NC(=O)[C@H](C)NC(=O)[C@H](O)[C@H](Cc1ccccc1)NC(=O)[C@H](CC(C)C)NC(=O)[C@@H](NC(=O)[C@@H](N)CCC(=O)O)C(C)C)C(=O)N[C@@H](CCC(=O)O)C(=O)N[C@@H](Cc1ccccc1)C(=O)O` (H-EVL[β3hPhe(2R-OH)]ALEF-OH), the inhibition in test [1] came to 41%.
For the compound `CC(C)C[C@H](NC(=O)[C@@H](NC(=O)[C@@H](N)CCC(=O)O)C(C)C)C(=O)N[C@@H](Cc1ccccc1)[C@@H](O)C(=O)N[C@@H](C)C(=O)N[C@H](C(=O)N[C@@H](CCC(=O)O)C(=O)N[C@@H](Cc1ccccc1)C(=O)O)C(C)C` (H-EVL[β3hPhe(2R-OH)]AVEF-OH), in test [1], the inhibition was 30%.
`CC(C)C[C@H](NC(=O)[C@@H](NC(=O)[C@@H](N)CCC(=O)O)C(C)C)C(=O)N[C@@H](Cc1ccccc1)[C@@H](O)C(=O)N[C@@H](CC(=O)O)C(=O)N[C@@H](C)C(=O)N[C@@H](CCC(N)=O)C(=O)N[C@@H](Cc1ccccc1)C(=O)O` (H-EVL[β3hPhe(2R-OH)]DAQF-OH) gave an inhibition in test [1] of 56%.
